For experiment [1], the target named is T1, CSF1R (Homo sapiens, UniProt P07333). Kind of experiment: HEK-CSF1R-STAT5-Luc reporter assay, M-CSF stimulated. Type of experiment: cell-based. More on the design: host or cells: HEK293T (ATCC CRL-3216). Particulars: for IC50: 600 ng/ml M-CSF, 24 h, luciferase, read-out: HEK-CSF1R-STAT5 IC 50. The procedure:
HEK-CSF1R-STAT5-Luc: Exponential growing HEK293T cells (ATCC® CRL-3216™), ectopically expressing human CSF1R receptor (Origene) and five copies of a STAT5 response element (STAT5 RE, promega) that drives transcription of the luciferase reporter were seeded at 5·10^3 per 20 μl of complete DMEM medium. The next day, 2.25 μL of test compound dilution were added to each well and stimulated with 600 ng/ml of M-CSF. The plates were incubated for 24 h at 37° C., 5% CO2. Unstimulated and stimulated cells served as reference for […]. At the end of incubation 25 μl of Steady-Glo® Luciferase Assay System (Promega) were added after 5 min of lysis, luminescence was measured on microplate reader (Envision 2105, Perkinelmer).
(§1) IC50 were measured and experiments were performed at least in duplicate.
(§2) Cell-based assays of compounds CC395-CC397, depicted above, against M-NFS-60 and HEK-CSF1R have been performed following the procedures described in example 29 and 30 and compared with their quinoline analogues 32, 44 and 108.

Experiment [2] concerns M-NFS-60 cells. The experiment can be described thus: Cell proliferation in M-NFS-60 leukemia cell line (WST-1). The format is cell-based. Particulars: for IC50: cell proliferation, 72 h, WST-1, read-out: M-NFS-60 IC 50. How it is done:
M-NFS-60: Exponential growing M-NFS-60 cells (ATCC, CRL-1838) were seeded at […]per 200 μl of complete medium with beta-mercaptoethanol and M-CSF (62 ng/mL) or IL34 (500 ng/mL). Twenty μL of test compound dilution were added to each well and the plates were incubated for 72 h at 37° C., 5% CO2. Untreated cells and positive control (0.5% triton X-100, for the last 15 min) served as reference for maximum and minimum viability. At the end of incubation 100 μl of supernatant were removed and replaced by 10 μl of WST-1 solution (Cell Proliferation Reagent WST-1, Roche Applied Science). After 3 h incubation at 37° C., 5% CO2, optical densities were measured at 450 nm and 620 nm for the background on microplate reader (Envision 2105, Perkinelmer).
as §1, §2

Experiment [3] deals with Kit (Homo sapiens, UniProt P10721). Kind of experiment: Z'-Lyte biochemical kinase assay (SelectScreen), Kit. The settings on record: at 50 nM, in duplicate. How it is done:
(§3) A biochemical assay was performed in order to measure the protein kinase inhibition. The kinase binding assays were performed against different kinases using the SelectScreen Biochemical Kinase Profiling Service® platform (Thermo Fisher Scientific). For all kinases, the Z′-Lyte® biochemical kinase assay technology was used. Inhibitions were measured at 50 nM in duplicate for each compound and are reported in percentage.

Experiment [4] deals with PDGFRA (Homo sapiens, UniProt P16234). The experiment can be described thus: Z'-Lyte biochemical kinase assay (SelectScreen), PDGFRA. Particulars: at 50 nM, in duplicate. The procedure: as §3
PDGFRA, sequence (P16234 24-1089): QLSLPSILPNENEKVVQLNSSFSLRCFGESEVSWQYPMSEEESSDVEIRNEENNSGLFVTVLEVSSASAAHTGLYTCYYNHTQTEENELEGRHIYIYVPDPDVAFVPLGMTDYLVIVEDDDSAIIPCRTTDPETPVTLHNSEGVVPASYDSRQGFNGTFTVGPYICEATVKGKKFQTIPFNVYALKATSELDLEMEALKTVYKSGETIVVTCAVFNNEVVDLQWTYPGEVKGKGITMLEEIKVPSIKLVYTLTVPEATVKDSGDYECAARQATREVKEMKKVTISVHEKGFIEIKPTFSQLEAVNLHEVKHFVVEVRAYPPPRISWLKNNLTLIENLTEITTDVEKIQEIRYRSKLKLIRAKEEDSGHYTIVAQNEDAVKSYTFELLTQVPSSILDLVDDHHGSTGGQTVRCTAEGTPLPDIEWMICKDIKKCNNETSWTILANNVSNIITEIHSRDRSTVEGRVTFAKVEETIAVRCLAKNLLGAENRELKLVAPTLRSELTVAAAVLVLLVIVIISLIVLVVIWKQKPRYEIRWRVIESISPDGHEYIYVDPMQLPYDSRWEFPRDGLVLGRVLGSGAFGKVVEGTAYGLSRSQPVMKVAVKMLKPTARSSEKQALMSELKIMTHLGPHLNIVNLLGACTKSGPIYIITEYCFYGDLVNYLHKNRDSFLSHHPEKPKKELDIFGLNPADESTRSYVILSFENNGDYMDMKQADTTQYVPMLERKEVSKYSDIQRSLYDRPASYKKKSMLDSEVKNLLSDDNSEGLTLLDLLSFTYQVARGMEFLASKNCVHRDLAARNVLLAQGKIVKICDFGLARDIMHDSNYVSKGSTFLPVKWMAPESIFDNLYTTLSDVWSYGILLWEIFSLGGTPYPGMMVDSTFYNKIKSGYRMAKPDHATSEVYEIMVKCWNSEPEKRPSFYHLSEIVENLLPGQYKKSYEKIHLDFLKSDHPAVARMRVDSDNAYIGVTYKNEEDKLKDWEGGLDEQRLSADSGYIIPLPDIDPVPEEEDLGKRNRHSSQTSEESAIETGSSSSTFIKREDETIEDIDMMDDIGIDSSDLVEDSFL
The target in experiment [5] is PDGFRB (Homo sapiens, UniProt P09619). The experiment can be described thus: Z'-Lyte biochemical kinase assay (SelectScreen), PDGFRB. The settings on record: at 50 nM, in duplicate. How it is done:
as §3

Experiment [6] deals with T1, CSF1R. The experiment can be described thus: Z'-Lyte biochemical kinase assay (SelectScreen), CSF1R. The settings on record: at 50 nM, in duplicate. The procedure:
as §3

The target of experiment [7] is T2, FLT3 (Homo sapiens, UniProt P36888).
T2 sequence (P36888 27-993): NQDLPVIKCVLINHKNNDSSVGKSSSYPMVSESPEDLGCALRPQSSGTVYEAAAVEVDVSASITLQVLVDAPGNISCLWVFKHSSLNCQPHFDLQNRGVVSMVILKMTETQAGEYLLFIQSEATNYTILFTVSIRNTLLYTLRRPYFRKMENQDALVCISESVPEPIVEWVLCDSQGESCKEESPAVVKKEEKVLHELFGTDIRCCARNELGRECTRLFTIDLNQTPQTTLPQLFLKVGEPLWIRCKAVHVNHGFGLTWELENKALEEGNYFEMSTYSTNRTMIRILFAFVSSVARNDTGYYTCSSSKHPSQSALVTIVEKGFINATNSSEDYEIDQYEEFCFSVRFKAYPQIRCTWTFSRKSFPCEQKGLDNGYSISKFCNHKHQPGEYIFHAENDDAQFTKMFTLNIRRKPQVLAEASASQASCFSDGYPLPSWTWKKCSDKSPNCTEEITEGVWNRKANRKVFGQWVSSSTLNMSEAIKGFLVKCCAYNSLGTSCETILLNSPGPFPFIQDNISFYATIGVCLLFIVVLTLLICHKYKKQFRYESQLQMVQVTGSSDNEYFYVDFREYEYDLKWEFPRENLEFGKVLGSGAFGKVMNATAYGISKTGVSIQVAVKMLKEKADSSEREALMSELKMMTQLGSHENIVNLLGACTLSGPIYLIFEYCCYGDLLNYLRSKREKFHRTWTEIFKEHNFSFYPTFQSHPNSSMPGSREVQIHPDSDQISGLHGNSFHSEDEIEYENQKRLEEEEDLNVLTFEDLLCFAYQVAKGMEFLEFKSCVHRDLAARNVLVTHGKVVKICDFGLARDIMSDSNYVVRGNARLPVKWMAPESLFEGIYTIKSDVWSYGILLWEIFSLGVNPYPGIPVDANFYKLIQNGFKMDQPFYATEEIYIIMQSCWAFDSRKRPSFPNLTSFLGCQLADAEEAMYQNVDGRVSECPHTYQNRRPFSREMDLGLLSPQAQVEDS
Kind of experiment: Z'-Lyte biochemical kinase assay (SelectScreen), FLT3. The settings on record: at 50 nM, in duplicate. How it is done: as §3

Where [8] appears, read: 32 vs CC395, 44 vs CC396, 108 vs CC397.

Here are results for 20 compounds from patent US20220388979A1, “QUINOLINE DERIVATIVES AS PROTEIN KINASE INHIBITORS” (B.C.I. PHARMA, priority 2019, published 2022).

Like-named read-outs stand apart in the source and are kept apart here.

PDGFRB, sequence (P09619 33-1106): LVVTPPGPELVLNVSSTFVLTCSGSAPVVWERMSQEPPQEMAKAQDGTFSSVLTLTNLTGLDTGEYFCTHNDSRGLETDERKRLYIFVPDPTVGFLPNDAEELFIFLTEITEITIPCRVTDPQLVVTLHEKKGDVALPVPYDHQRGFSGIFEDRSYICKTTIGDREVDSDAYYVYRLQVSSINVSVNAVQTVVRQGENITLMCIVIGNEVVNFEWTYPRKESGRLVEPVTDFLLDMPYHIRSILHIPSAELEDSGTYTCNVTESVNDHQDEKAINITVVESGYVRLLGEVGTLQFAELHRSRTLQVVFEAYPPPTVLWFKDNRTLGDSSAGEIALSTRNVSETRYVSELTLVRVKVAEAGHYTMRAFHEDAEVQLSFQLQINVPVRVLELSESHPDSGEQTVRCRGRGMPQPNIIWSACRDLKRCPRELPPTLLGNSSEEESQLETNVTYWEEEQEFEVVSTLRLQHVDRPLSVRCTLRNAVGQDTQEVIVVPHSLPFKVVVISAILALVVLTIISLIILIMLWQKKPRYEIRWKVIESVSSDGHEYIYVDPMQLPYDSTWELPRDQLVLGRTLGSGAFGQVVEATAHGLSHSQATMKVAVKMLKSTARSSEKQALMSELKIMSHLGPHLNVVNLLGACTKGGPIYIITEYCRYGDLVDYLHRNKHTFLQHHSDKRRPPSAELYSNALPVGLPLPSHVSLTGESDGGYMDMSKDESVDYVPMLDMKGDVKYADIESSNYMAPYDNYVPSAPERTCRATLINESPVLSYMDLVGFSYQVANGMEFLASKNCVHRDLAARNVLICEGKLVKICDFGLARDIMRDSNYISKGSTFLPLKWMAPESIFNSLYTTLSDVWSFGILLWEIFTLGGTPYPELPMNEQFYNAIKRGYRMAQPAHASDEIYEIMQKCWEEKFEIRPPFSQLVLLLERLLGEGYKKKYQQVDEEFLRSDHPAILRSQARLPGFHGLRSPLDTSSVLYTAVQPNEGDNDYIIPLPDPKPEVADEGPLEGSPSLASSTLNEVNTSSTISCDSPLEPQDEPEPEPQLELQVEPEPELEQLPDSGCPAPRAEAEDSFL
Kit, sequence (P10721 26-976): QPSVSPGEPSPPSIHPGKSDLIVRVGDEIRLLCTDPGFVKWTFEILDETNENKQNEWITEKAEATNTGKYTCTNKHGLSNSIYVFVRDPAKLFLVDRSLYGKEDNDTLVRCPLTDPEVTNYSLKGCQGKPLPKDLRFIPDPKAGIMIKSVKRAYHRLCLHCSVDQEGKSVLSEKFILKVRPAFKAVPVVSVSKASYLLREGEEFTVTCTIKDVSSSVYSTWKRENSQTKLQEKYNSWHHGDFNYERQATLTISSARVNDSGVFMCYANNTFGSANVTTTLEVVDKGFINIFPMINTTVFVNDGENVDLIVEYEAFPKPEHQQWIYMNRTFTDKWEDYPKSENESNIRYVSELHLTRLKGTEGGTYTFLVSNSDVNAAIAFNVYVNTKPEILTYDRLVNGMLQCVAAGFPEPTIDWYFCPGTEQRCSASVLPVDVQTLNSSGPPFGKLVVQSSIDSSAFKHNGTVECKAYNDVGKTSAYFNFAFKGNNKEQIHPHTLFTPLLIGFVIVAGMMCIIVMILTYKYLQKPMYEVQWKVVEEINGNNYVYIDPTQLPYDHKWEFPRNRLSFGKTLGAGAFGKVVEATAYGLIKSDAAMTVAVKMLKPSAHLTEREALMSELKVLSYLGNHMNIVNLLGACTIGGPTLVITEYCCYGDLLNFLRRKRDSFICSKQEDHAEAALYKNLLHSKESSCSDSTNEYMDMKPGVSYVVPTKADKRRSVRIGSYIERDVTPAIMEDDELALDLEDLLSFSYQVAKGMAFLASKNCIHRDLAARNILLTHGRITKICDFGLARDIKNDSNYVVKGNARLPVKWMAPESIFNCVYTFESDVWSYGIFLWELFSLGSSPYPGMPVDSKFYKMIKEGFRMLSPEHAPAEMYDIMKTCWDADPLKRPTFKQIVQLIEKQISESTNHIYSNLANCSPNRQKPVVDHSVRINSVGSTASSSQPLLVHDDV
T1 sequence (P07333 20-972): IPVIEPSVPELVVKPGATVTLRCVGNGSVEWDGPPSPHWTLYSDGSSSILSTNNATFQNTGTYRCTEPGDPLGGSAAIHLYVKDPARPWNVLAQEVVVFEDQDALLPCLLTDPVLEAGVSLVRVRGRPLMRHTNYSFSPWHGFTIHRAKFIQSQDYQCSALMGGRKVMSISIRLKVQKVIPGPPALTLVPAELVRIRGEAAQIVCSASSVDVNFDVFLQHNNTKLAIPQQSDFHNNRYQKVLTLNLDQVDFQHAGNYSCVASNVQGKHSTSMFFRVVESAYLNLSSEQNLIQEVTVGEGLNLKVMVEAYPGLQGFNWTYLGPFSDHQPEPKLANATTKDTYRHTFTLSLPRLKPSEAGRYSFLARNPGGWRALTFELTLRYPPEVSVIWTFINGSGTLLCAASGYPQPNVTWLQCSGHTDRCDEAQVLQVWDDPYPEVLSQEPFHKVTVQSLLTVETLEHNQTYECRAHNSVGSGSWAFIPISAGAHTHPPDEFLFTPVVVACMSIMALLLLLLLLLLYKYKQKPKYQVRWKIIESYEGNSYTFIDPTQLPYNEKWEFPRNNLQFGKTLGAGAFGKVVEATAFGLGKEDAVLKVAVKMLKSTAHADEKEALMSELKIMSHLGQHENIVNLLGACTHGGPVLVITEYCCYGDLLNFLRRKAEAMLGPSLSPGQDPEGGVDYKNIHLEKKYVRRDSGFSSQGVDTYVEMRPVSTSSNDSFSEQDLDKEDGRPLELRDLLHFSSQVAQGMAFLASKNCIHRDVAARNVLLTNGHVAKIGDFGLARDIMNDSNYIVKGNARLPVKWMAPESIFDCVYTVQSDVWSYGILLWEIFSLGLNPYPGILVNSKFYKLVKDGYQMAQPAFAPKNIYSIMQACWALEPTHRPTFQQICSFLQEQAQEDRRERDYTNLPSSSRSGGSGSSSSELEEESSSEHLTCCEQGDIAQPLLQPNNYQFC

Take `COc1ccc2c(Oc3cccc(C(=O)NCc4ccncc4F)c3C)ccnc2c1` [compound 44]: the “fold decrease in IC50 against HEK-CSF1R-STAT5 compared to quinazoline-based comparative compound” value in experiment [1] (setting [8]) came to 86 fold. Besides, the IC50 was 7 nM in experiment [1] (Table 9) and 19 nM in experiment [2] (Table 9). In addition, the “fold decrease in IC50 against M-NFS-60 compared to quinazoline-based comparative compound” value in experiment [2] (setting [8]) came out at 22 fold.

In the case of `COc1cc2nccc(Oc3cccc(CC(=O)NCc4ccncc4)c3)c2cc1OC` [CC400, reference compound], the IC50 in experiment [1] (Table 10) is 2270 nM; in experiment [2] (Table 10), 4220 nM.

With `Cc1c(Oc2ncnc3cc(Cl)ccc23)cccc1C(=O)NCc1ccncc1` [CC 397, 3-(7-chloroquinazolin-4-yl)oxy-2-methyl-N-(4-pyridylmethyl)benzamide, reference compound], the IC50 in experiment [1] (Table 9) amounted to 4150 nM; in experiment [2] (Table 9) it was 1260 nM.

As to `COc1cc2nccc(Oc3cccc(C(=O)NCc4ccncc4)c3)c2cc1OC` [compound 398], the IC50 in experiment [1] (Table 10) was 58 nM; in experiment [2] (Table 10), 198 nM. The “fold decrease in IC50 against HEK-CSF1R-STAT5 compared to CC399” value in experiment [1] (vs CC399) was 61 fold. Besides, the “fold decrease in IC50 against HEK-CSF1R-STAT5 compared to CC400” value in experiment [1] (vs CC400) came out at 39 fold. For the same compound, in experiment [1] (vs CC401), the “fold decrease in IC50 against HEK-CSF1R-STAT5 compared to CC401” value came out at 67 fold. The “fold decrease in IC50 against M-NFS-60 compared to CC399” value in experiment [2] (vs CC399) is reported as 26 fold. For the same compound, the “fold decrease in IC50 against M-NFS-60 compared to CC400” value in experiment [2] (vs CC400) worked out at 21 fold. Moreover, in experiment [2] (vs CC401), the “fold decrease in IC50 against M-NFS-60 compared to CC401” value is recorded as 38 fold.

Consider `Cc1c(Oc2ccnc3cc(Cl)ccc23)cccc1C(=O)NCc1ccncc1` [compound 108, 3-[(7-chloro-4-quinolyl)oxy]-2-methyl-N-(4-pyridylmethyl)benzamide], for which the IC50 in experiment [1] (Table 9) came to 29 nM; in experiment [2] (Table 9), 58 nM.

In the case of `COc1cc2nccc(Oc3cccc(CC(=O)Nc4ccncc4)c3)c2cc1OC` [CC401, reference compound], the IC50 stood at 3850 nM in experiment [1] (Table 10) and 7510 nM in experiment [2] (Table 10).

On to `COc1cc2nccc(Oc3cccc(NC(=O)Cc4ccncc4)c3)c2cc1OC` [CC399, reference compound], for which the results for the IC50 in experiment [1] (Table 10) and in experiment [2] (Table 10) were 3540 nM and 5210 nM, respectively.

Take `COc1ccccc1CNC(=O)c1cccc(Oc2ccnc3cc(OC)c(OC)cc23)c1` [compound 26]: the inhibition at 0.05 µM in experiment [3] was 32%; in experiment [4], 35%; in experiment [5], 50%; in experiment [6], 102%; in experiment [7] it was 47%.

Consider `COc1cc2nccc(Oc3cccc(C(=O)NCc4cncc(F)c4)c3)c2cc1OC` [compound 29], for which the inhibition at 0.05 µM was determined as 17% in experiment [3]; 21% in experiment [4]; 28% in experiment [5]; 93% in experiment [6]; 2% in experiment [7].

For the compound `Cc1c(Oc2ccnc3ccccc23)cccc1C(=O)NCc1cccc(F)c1` [compound 103], the inhibition at 0.05 µM is 7% in experiment [3]; -5% in experiment [4]; 13% in experiment [5]; 73% in experiment [6]; 8% in experiment [7].

In the case of `COc1cc2nccc(Oc3cccc(C(=O)NCc4cccc(F)c4)c3C)c2cc1OC` [compound 107], the inhibition at 0.05 µM was determined as 11% in experiment [3]; 22% in experiment [4]; 25% in experiment [5]; 85% in experiment [6]; 19% in experiment [7].

As to `O=C(NCC1CCCCC1)c1cccc(Oc2ccnc3ccccc23)c1` [compound 3], the inhibition at 0.05 µM in experiment [3] turned out to be 7%; in experiment [4], 18%; in experiment [5], 27%; in experiment [6] it was 71%; in experiment [7], 6%.

As for `CN(C)c1ccc2c(Oc3cc(C(=O)NCc4ccncc4)ccc3F)ccnc2c1` [compound 143], the inhibition at 0.05 µM in experiment [3] is 8%; in experiment [4], 14%; in experiment [5] it was 32%; in experiment [6], 77%; in experiment [7], 3%.

Take `Cc1c(Oc2ccnc3cc(Cl)ccc23)cccc1C(=O)NCc1ccncc1` [Compounds 108]: the inhibition at 0.05 µM in experiment [3] was found to be 10%; in experiment [4] it was 11%; in experiment [5], 13%; in experiment [6] it was 88%; in experiment [7], 6%.

With `COc1ccc2c(Oc3cc(F)cc(C(=O)NCc4ccccc4OC)c3)ccnc2c1` [compound 88], the inhibition at 0.05 µM in experiment [3] turned out to be 30%; in experiment [4], 31%; in experiment [5] it was 53%; in experiment [6], 85%; in experiment [7] it was 29%.

Turning to `COc1ccc2c(Oc3cccc(C(=O)NCc4ccncc4)c3C)ncnc2c1` [CC 395, 3-(7-methoxyquinazolin-4-yl)oxy-2-methyl-N-(4-pyridylmethyl)benzamide, reference compound], the values for the IC50 in experiment [1] (Table 9) and in experiment [2] (Table 9) were 926 nM and 636 nM, respectively.

As to `COc1ccc2c(Oc3cccc(C(=O)NCc4ccncc4F)c3C)ncnc2c1` [CC 396, N-[(3-fluoro-4-pyridyl)methyl]-3-(7-methoxyquinazolin-4-yl)oxy-2-methyl-benzamide, reference compound], the IC50 in experiment [1] (Table 9) was 600 nM; in experiment [2] (Table 9) it was 415 nM.

Consider `COc1ccc2c(Oc3cccc(C(=O)NCc4ccncc4)c3C)ccnc2c1` [compound 32, 3-[(7-methoxy-4-quinolyl)oxy]-2-methyl-N-(4-pyridylmethyl)benzamide], for which the IC50 in experiment [1] (Table 9) came to 26 nM; in experiment [2] (Table 9), 34 nM.

Take `Cc1c(Oc2ccnc3ccccc23)cccc1C(=O)NCc1ccc(C#N)cc1` [compound 30]: the inhibition at 0.05 µM in experiment [3] stood at 8%; in experiment [4], 8%; in experiment [5] it was 11%; in experiment [6], 72%; in experiment [7] it was 10%.

As for `COc1cc2nccc(Oc3cc(C(=O)N[C@H](C)C4CCCCC4)ccc3F)c2cc1OC` [compound 93], the inhibition at 0.05 µM in experiment [3] stood at 2%; in experiment [4] it was 23%; in experiment [5] it was 24%; in experiment [6] it was 82%; in experiment [7], 3%.
